Our source for the T/C values is PubChem BioAssay AID270 (DTP/NCI, 2004).

Where “and” joins values, the source holds several entries; their conditions need not be identical. Equal entries are not always repeated. Results filed as inconclusive are left out.

For this assay, the system named is BDF1 mice, s.c. Lewis lung carcinoma, T/C %. The assay is described as follows: NCI In Vivo Anticancer Drug Screen. Data for tumor model Lewis Lung Carcinoma (subcutaneous) in B6D2F1 (BDF1) mice. In outline:
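Tumor-bearing mice were treated with test compound, and either survival or tumor size was recorded. Values are the treated-group measurement divided by that of the vehicle-treated control group.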

The mark [1] stands for this setting: endpoint: median survival time, dose: 6.25 mg/kg/injection, schedule: Q01DX009 (ip), vehicle: Klucel (hydroxypropylcellulose) (HPC), higher = longer survival.
The mark [2] stands for this setting: endpoint: median survival time, dose: 12.5 mg/kg/injection, schedule: Q01DX009 (ip), vehicle: Klucel (hydroxypropylcellulose) (HPC), higher = longer survival.
Where [3] appears, read: endpoint: median survival time, dose: 25.0 mg/kg/injection, schedule: Q01DX009 (ip), vehicle: Klucel (hydroxypropylcellulose) (HPC), higher = longer survival.

In the case of `O=NN(CCCl)C(=O)NCCCl`, the T/C (endpoint: mean tumor weight, dose: 1.57 mg/kg/injection, schedule: Q01DX011 (ip), vehicle: saline, higher = larger tumour) was 78 % of control; the T/C (endpoint: mean tumor weight, dose: 3.13 mg/kg/injection, schedule: Q01DX011 (ip), vehicle: saline, higher = larger tumour) is 56 % of control; the T/C (endpoint: mean tumor weight, dose: 4.0 mg/kg/injection, schedule: Q01DX011 (ip), vehicle: other, higher = larger tumour) was 41 % of control; the T/C (endpoint: mean tumor weight, dose: 6.25 mg/kg/injection, schedule: Q01DX011 (ip), vehicle: saline, higher = larger tumour) was 4 % of control and 14 % of control; the T/C (endpoint: mean tumor weight, dose: 12.5 mg/kg/injection, schedule: Q01DX011 (ip), vehicle: saline, higher = larger tumour) was 3 % of control; the T/C (endpoint: median survival time, dose: 0.5 mg/kg/injection, schedule: Q08HX024 (ip), vehicle: Klucel (hydroxypropylcellulose) (HPC), higher = longer survival) is 90 % of control. Also, the T/C (endpoint: median survival time, dose: 1.0 mg/kg/injection, schedule: Q08HX024 (ip), vehicle: Klucel (hydroxypropylcellulose) (HPC), higher = longer survival) is 91 % of control; the T/C (endpoint: median survival time, dose: 5.0 mg/kg/injection, schedule: Q01DX001 (ip), vehicle: Klucel (hydroxypropylcellulose) (HPC), higher = longer survival) was 108 % of control; the T/C (endpoint: median survival time, dose: 5.0 mg/kg/injection, schedule: Q01DX001 (ip), vehicle: saline + alcohol, higher = longer survival) is 100 % of control and 104 % of control; the T/C (endpoint: median survival time, dose: 5.0 mg/kg/injection, schedule: Q01DX001 (ip), vehicle: saline with Tween-80, higher = longer survival) was 113 % of control; the T/C (endpoint: median survival time, dose: 6.7 mg/kg/injection, schedule: Q01DX005 (ip), vehicle: saline + alcohol, higher = longer survival) is 113 % of control; the T/C (endpoint: median survival time, dose: 10.0 mg/kg/injection, schedule: Q01DX001 (ip), vehicle: Klucel (hydroxypropylcellulose) (HPC), higher = longer survival) is 120 % of control. Besides, the T/C is, setting by setting: (endpoint: median survival time, dose: 10.0 mg/kg/injection, schedule: Q01DX001 (ip), vehicle: saline + alcohol, higher = longer survival) 96 % of control and 116 % of control; (endpoint: median survival time, dose: 10.0 mg/kg/injection, schedule: Q01DX001 (ip), vehicle: saline with Tween-80, higher = longer survival) 99 % of control and 102 % of control; (endpoint: median survival time, dose: 13.0 mg/kg/injection, schedule: Q01DX001 (ip), vehicle: saline + alcohol, higher = longer survival) 100 % of control; (endpoint: median survival time, dose: 13.5 mg/kg/injection, schedule: Q01DX001 (ip), vehicle: Klucel (hydroxypropylcellulose) (HPC), higher = longer survival) 160 % of control; (endpoint: median survival time, dose: 15.0 mg/kg/injection, schedule: Q01DX005 (ip), vehicle: saline + alcohol, higher = longer survival) 71 % of control and 85 % of control; (endpoint: median survival time, dose: 20.0 mg/kg/injection, schedule: Q01DX001 (ip), vehicle: Klucel (hydroxypropylcellulose) (HPC), higher = longer survival) 117 % of control. Moreover, the T/C by setting is: (endpoint: median survival time, dose: 20.0 mg/kg/injection, schedule: Q01DX001 (ip), vehicle: saline + alcohol, higher = longer survival) 104 % of control and 121 % of control; (endpoint: median survival time, dose: 20.0 mg/kg/injection, schedule: Q01DX001 (ip), vehicle: saline with Tween-80, higher = longer survival) 111 % of control and 119 % of control; (endpoint: median survival time, dose: 26.0 mg/kg/injection, schedule: Q01DX001 (ip), vehicle: saline + alcohol, higher = longer survival) 117 % of control; (endpoint: median survival time, dose: 27.0 mg/kg/injection, schedule: Q01DX001 (ip), vehicle: Klucel (hydroxypropylcellulose) (HPC), higher = longer survival) 105 % of control; (endpoint: median survival time, dose: 30.0 mg/kg/injection, schedule: Q01DX001 (ip), vehicle: saline + alcohol, higher = longer survival) 163 % of control; (endpoint: median survival time, dose: 39.0 mg/kg/injection, schedule: Q01DX001 (ip), vehicle: saline + alcohol, higher = longer survival) 100 % of control. The T/C by setting is: (endpoint: median survival time, dose: 40.0 mg/kg/injection, schedule: Q01DX001 (ip), vehicle: Klucel (hydroxypropylcellulose) (HPC), higher = longer survival) 156 % of control; (endpoint: median survival time, dose: 40.0 mg/kg/injection, schedule: Q01DX001 (ip), vehicle: saline with Tween-80, higher = longer survival) 121 % of control; (endpoint: median survival time, dose: 80.0 mg/kg/injection, schedule: Q01DX001 (ip), vehicle: Klucel (hydroxypropylcellulose) (HPC), higher = longer survival) 217 % of control; (endpoint: median survival time, dose: 80.0 mg/kg/injection, schedule: Q01DX001 (ip), vehicle: saline + alcohol, higher = longer survival) 95 % of control; (endpoint: median tumor weight (est.), dose: 14.0 mg/kg/injection, schedule: Q01DX001 (ip), vehicle: saline + alcohol, higher = larger tumour) 70 % of control; (endpoint: median tumor weight (est.), dose: 27.0 mg/kg/injection, schedule: Q01DX001 (ip), vehicle: saline + alcohol, higher = larger tumour) 65 % of control. For the same compound, the T/C (endpoint: median tumor weight (est.), dose: 41.0 mg/kg/injection, schedule: Q01DX001 (ip), vehicle: saline + alcohol, higher = larger tumour) was 34 % of control.
Consider `COC(=O)[C@H]1[C@H]2C[C@@H]3c4[nH]c5cc(OC)ccc5c4CCN3C[C@H]2C[C@@H](OC(=O)c2cc(OC)c(OC)c(OC)c2)[C@@H]1OC`, for which the T/C is, setting by setting: (endpoint: median survival time, dose: 0.25 mg/kg/injection, schedule: Q01DX009 (ip), vehicle: Klucel (hydroxypropylcellulose) (HPC), higher = longer survival) 91 % of control; (endpoint: median survival time, dose: 0.5 mg/kg/injection, schedule: Q01DX009 (ip), vehicle: Klucel (hydroxypropylcellulose) (HPC), higher = longer survival) 97 % of control and 243 % of control; (endpoint: median survival time, dose: 1.0 mg/kg/injection, schedule: Q01DX009 (ip), vehicle: Klucel (hydroxypropylcellulose) (HPC), higher = longer survival) 103 % of control; (endpoint: median survival time, dose: 2.0 mg/kg/injection, schedule: Q01DX009 (ip), vehicle: Klucel (hydroxypropylcellulose) (HPC), higher = longer survival) 96 % of control and 243 % of control.
`NC(=O)N(CCCl)N=O`: the T/C reads like this: (endpoint: mean tumor weight, dose: 0.63 mg/kg/injection, schedule: Q01DX011 (ip), vehicle: saline, higher = larger tumour) 80 % of control; (endpoint: mean tumor weight, dose: 1.25 mg/kg/injection, schedule: Q01DX011 (ip), vehicle: saline, higher = larger tumour) 53 % of control; (endpoint: mean tumor weight, dose: 2.5 mg/kg/injection, schedule: Q01DX011 (ip), vehicle: saline, higher = larger tumour) 10 % of control; (endpoint: median survival time, dose: 1.0 mg/kg/injection, schedule: Q01DX001 (ip), vehicle: saline + alcohol, higher = longer survival) 120 % of control.
Turning to `CC(C)=CC(=O)OCC[N+](C)(C)C`, the T/C was 96 % of control (endpoint: median survival time, dose: 1.56 mg/kg/injection, schedule: Q01DX009 (ip), vehicle: saline, higher = longer survival); 103 % of control (endpoint: median survival time, dose: 3.12 mg/kg/injection, schedule: Q01DX009 (ip), vehicle: saline, higher = longer survival); 103 % of control (endpoint: median survival time, dose: 12.5 mg/kg/injection, schedule: Q01DX009 (ip), vehicle: saline, higher = longer survival); 113 % of control (endpoint: median survival time, dose: 25.0 mg/kg/injection, schedule: Q01DX009 (ip), vehicle: saline, higher = longer survival).
For `NS(=O)(=O)c1ncnc2nc[nH]c12`, the T/C runs as follows: (endpoint: mean tumor weight, dose: 5.0 mg/kg/injection, schedule: Q01DX011 (ip), vehicle: methylcellulose (MC), higher = larger tumour) 88 % of control; (endpoint: mean tumor weight, dose: 25.0 mg/kg/injection, schedule: Q01DX011 (ip), vehicle: methylcellulose (MC), higher = larger tumour) 87 % of control.
For the compound `CC(=O)OC(C)(C)/C=C/C(=O)[C@](C)(O)[C@H]1[C@H](O)C[C@@]2(C)[C@@H]3CC=C4[C@@H](C=C(O)C(=O)C4(C)C)[C@]3(C)C(=O)C[C@]12C`, the T/C was 59 % of control (endpoint: mean tumor weight, dose: 0.4 mg/kg/injection, schedule: Q01DX011 (ip), vehicle: carboxymethylcellulose (CMC), higher = larger tumour); 78 % of control (endpoint: mean tumor weight, dose: 0.8 mg/kg/injection, schedule: Q01DX011 (ip), vehicle: carboxymethylcellulose (CMC), higher = larger tumour); 26 % of control (endpoint: mean tumor weight, dose: 1.6 mg/kg/injection, schedule: Q01DX011 (ip), vehicle: carboxymethylcellulose (CMC), higher = larger tumour); 27 % of control (endpoint: mean tumor weight, dose: 3.2 mg/kg/injection, schedule: Q01DX011 (ip), vehicle: carboxymethylcellulose (CMC), higher = larger tumour); 58 % of control (endpoint: mean tumor weight, dose: 3.2 mg/kg/injection, schedule: Q01DX011 (ip), vehicle: saline, higher = larger tumour); 33 % of control (endpoint: mean tumor weight, dose: 6.4 mg/kg/injection, schedule: Q01DX011 (ip), vehicle: saline, higher = larger tumour). The T/C (endpoint: mean tumor weight, dose: 12.8 mg/kg/injection, schedule: Q01DX011 (ip), vehicle: saline, higher = larger tumour) is 52 % of control.
`C=C1CC/C=C(\C)CCC2C1CC2(C)C` (centres undefined): the T/C (endpoint: mean tumor weight, dose: 25.0 mg/kg/injection, schedule: Q01DX011 (ip), vehicle: saline, higher = larger tumour) is 94 % of control; the T/C (endpoint: mean tumor weight, dose: 50.0 mg/kg/injection, schedule: Q01DX011 (ip), vehicle: saline, higher = larger tumour) was 88 % of control; the T/C (endpoint: mean tumor weight, dose: 100.0 mg/kg/injection, schedule: Q01DX011 (ip), vehicle: saline, higher = larger tumour) is 45 % of control.
On to `CSc1ccc(NC(=O)N(CCCl)N=O)cc1`, for which the T/C is 115 % of control under setting [1]; 90 % of control under setting [2]; 106 % of control under setting [3]; 103 % of control (endpoint: median survival time, dose: 50.0 mg/kg/injection, schedule: Q01DX009 (ip), vehicle: Klucel (hydroxypropylcellulose) (HPC), higher = longer survival).
As to `C=C1C(=O)OC2C3OC(C)(CCC(O)C3COC(C)=O)CC(OC(=O)/C(=C/C)COC(C)=O)C12` (centres undefined), the T/C by setting is: (endpoint: median survival time, dose: 3.12 mg/kg/injection, schedule: Q01DX009 (ip), vehicle: Klucel (hydroxypropylcellulose) (HPC), higher = longer survival) 107 % of control; (endpoint: median survival time, dose: 3.13 mg/kg/injection, schedule: Q01DX009 (ip), vehicle: Klucel (hydroxypropylcellulose) (HPC), higher = longer survival) 101 % of control; under setting [1], 101 % of control; under setting [2], 114 % of control; under setting [3], 106 % of control.
In the case of `CS(=O)(=O)OC[C@@H](O)[C@@H](O)COS(C)(=O)=O`, the T/C (endpoint: mean tumor weight, dose: 62.5 mg/kg/injection, schedule: Q01DX011 (ip), vehicle: saline, higher = larger tumour) is 71 % of control; the T/C (endpoint: mean tumor weight, dose: 250.0 mg/kg/injection, schedule: Q01DX011 (ip), vehicle: saline, higher = larger tumour) is 115 % of control; the T/C (endpoint: mean tumor weight, dose: 500.0 mg/kg/injection, schedule: Q01DX011 (ip), vehicle: saline, higher = larger tumour) is 94 % of control; the T/C (endpoint: mean tumor weight, dose: 750.0 mg/kg/injection, schedule: Q01DX011 (ip), vehicle: other, higher = larger tumour) is 100 % of control; the T/C (endpoint: mean tumor weight, dose: 1000.0 mg/kg/injection, schedule: Q01DX011 (ip), vehicle: other, higher = larger tumour) is 98 % of control.
